Test results as given in patent US6525001B1, “Substituted pyrimidine and pyridine herbicides” (Mid-American Commercialization Corporation, priority 1997, dated 2003).

Legend:
Assay type in all cases: in vivo
[1] = tested on: johnsongrass (Sorghum halepense); assay: Test C; settings: PREEMERGENCE
[2] = tested on: sandbur (Cenchrus echinatus); assay: Test E pre-/postemergence/post directed; set-up: key: 0 is no injury; 100 is complete control; settings: PREEMERGENCE, Rate 32 g/ha
Procedure, shortened: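 Injury scored visually on a 0–100 scale (100 = complete control) 13 to 21 days after treatment. Test chemicals, formulated with surfactant in non-phytotoxic solvent, were applied to soil within one day of planting, to plants at two to four leaves (three to twenty cm), or as directed spray at plant base.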

[3] = tested on: purple nutsedge (Cyperus rotundus); assay: Test C; set-up: key: 0 was no effect; 100 was complete control; settings: PREEMERGENCE
wild oat (Avena fatua) = assay: Test D; settings: PREEMERGENCE
[4] = tested on: guineagrass (Panicum maximum); assay: Test E pre-/postemergence/post directed; set-up: key: 0 is no effect; 100 is complete control
Source text: (§1) Seeds, tubers, or plant parts of alexandergrass (Brachiaria plantaginea), annual bluegrass (Poa annua), arrowleaf sida (Sida rhombifolia), barnyardgrass (Echinochloa crus-galli), bermudagrass (Cynodon dactylon), citrus (Citrus sinensis), common chickweed (Stellaria media), common purslane (Portulaca oleracea), common ragweed (Ambrosia elatior), common groundsel (Senecio vulgaris), dallisgrass (Paspalum dilatatum), goosegrass (Eleusine indica), green foxtail (Setaria viridis), guineagrass (Panicum maximum), itchgrass (Rottboellia exaltata), johnson grass (Sorghum halepense), kochia (Kochia scoparia), large crabgrass (Digitaria sanguinalis), leafy spurge (Euphorbia esula), pitted morningglory (Ipomoea lacunosa), purple nutsedge (Cyperus rotundus), quackgrass (Agropyron repens), Russian thistle (Salsola kali), sandbur (Cenchrus echinatus), sourgrass (Trichachne insularis), Spanishneedles (Bidens bipinnata), sugarcane (Saccharum officinarum), surinam grass (Brachiaria decumbens) and tall mallow (Malva sylvestris) were planted into greenhouse pots of flats containing greenhouse planting medium. Plant species were grown grown in separate pots or individual compartments. Preemergence applications were made within one day of planting the seed or plant part. Postemergence applications were applied when the plants were in the two to four leaf stage (three to twenty cm).
(§2) Test chemicals were formulated in a non-phytotoxic solvent mixture which included a surfactant and applied preemergence to the soil surface, postemergence to the plants or as a post directed spray to plants and soil at the base of the target species. Untreated control plants and treated plants were placed in the greenhouse and visually evaluated for injury 13 to 21 days after herbicide application. Plant response ratings, summarized in Table E, are based on a 0 to 100 scale where 0 is no injury and 100 is complete control. A dash (−) response means no test result.

[5] = tested on: goosegrass (Eleusine indica); assay: Test E pre-/postemergence/post directed; set-up: key: 0 is no effect; 100 is complete control
Source text: as §1, §2

[6] = tested on: sourgrass (Trichachne insularis); assay: Test E pre-/postemergence/post directed; set-up: key: 0 is no effect; 100 is complete control
Source text: as §1, §2

[7] = tested on: common ragweed (Ambrosia elatior); assay: Test E pre-/postemergence/post directed; set-up: key: 0 is no effect; 100 is complete control; settings: PREEMERGENCE
Source text: as §1, §2

[8] = tested on: bermudagrass (Cynodon dactylon); assay: Test E pre-/postemergence/post directed; set-up: key: 0 is no effect; 100 is complete control; settings: PREEMERGENCE
Source text: as §1, §2

[9] = tested on: large crabgrass (Digitaria sanguinalis); assay: Test E pre-/postemergence/post directed; set-up: key: 0 is no effect; 100 is complete control; settings: PREEMERGENCE
Source text: as §1, §2

[10] = tested on: common groundsel (Senecio vulgaris); assay: Test E pre-/postemergence/post directed; set-up: key: 0 is no effect; 100 is complete control
Source text: as §1, §2

[11] = tested on: tall mallow (Malva sylvestris); assay: Test E pre-/postemergence/post directed; set-up: key: 0 is no effect; 100 is complete control; settings: PREEMERGENCE
Source text: as §1, §2

[12] = tested on: common purslane (Portulaca oleracea); assay: Test E pre-/postemergence/post directed; set-up: key: 0 is no effect; 100 is complete control
Source text: as §1, §2

[13] = tested on: dallisgrass (Paspalum dilatatum); assay: Test E pre-/postemergence/post directed; set-up: key: 0 is no effect; 100 is complete control
Source text: as §1, §2

[14] = tested on: downy brome (Bromus tectorum); assay: Test D; settings: PREEMERGENCE
soybean (Glycine max) = assay: Test C; set-up: key: 0 was no effect; 100 was complete control; settings: PREEMERGENCE
[15] = tested on: field bindweed (Convolvulus arvensis); assay: Test C; set-up: key: 0 was no effect; 100 was complete control; settings: PREEMERGENCE
[16] = tested on: hairy beggarticks (Bidens pilosa); assay: Test C; set-up: key: 0 was no effect; 100 was complete control; settings: PREEMERGENCE
[17] = tested on: surinam grass (Brachiaria decumbens); assay: Test E pre-/postemergence/post directed; set-up: key: 0 is no effect; 100 is complete control; settings: PREEMERGENCE, Rate 250 g/ha
Source text: as §1, §2

For `Cc1cnc(-n2ccc(C(F)(F)F)n2)nc1Cn1ccc(C(F)(F)F)n1` [Compound 52], the “Plant response rating, Johnsongrass” value ([1]; Rate 35 g/ha) was 40, the “Plant response rating, Johnsongrass” value ([1]; Rate 70 g/ha) was 50 and the “Plant response rating, Johnsongrass” value ([1]; Rate 140 g/ha) was 80. The “Plant response rating, Sandbur” value [2] was 0, the “Plant response rating, Purple nutsedge” value ([3]; Rate 35 g/ha) was 0 and the “Plant response rating, Purple nutsedge” value ([3]; Rate 70 g/ha) was 5. For the same compound, the “Plant response rating, Purple nutsedge” value ([3]; Rate 140 g/ha) was 10, the “Plant response rating, Wild oat” value (wild oat (Avena fatua); Rate 31 g/ha) was 40 and the “Plant response rating, Wild oat” value (wild oat (Avena fatua); Rate 62 g/ha) was 50. The “Plant response rating, Wild oat” value (wild oat (Avena fatua); Rate 125 g/ha) was 60, the “Plant response rating, Guineagrass” value ([4]; POSTEMERGENCE, Rate 125 g/ha) was 80 and the “Plant response rating, Guineagrass” value ([4]; POSTEMERGENCE, Rate 250 g/ha) was 85. The “Plant response rating, Guineagrass” value ([4]; PREEMERGENCE, Rate 32 g/ha) was 60, the “Plant response rating, Guineagrass” value ([4]; PREEMERGENCE, Rate 64 g/ha) was 80 and the “Plant response rating, Guineagrass” value ([4]; PREEMERGENCE, Rate 125 g/ha) was 100. For the same compound, the “Plant response rating, Goosegrass” value ([5]; POSTEMERGENCE, Rate 125 g/ha) was 5, the “Plant response rating, Goosegrass” value ([5]; POSTEMERGENCE, Rate 250 g/ha) was 75 and the “Plant response rating, Goosegrass” value ([5]; PREEMERGENCE, Rate 32 g/ha) was 20. The “Plant response rating, Goosegrass” value ([5]; PREEMERGENCE, Rate 64 g/ha) was 100, the “Plant response rating, Goosegrass” value ([5]; PREEMERGENCE, Rate 125 g/ha) was 100 and the “Plant response rating, Sourgrass” value ([6]; POSTEMERGENCE, Rate 125 g/ha) was 10. The “Plant response rating, Sourgrass” value ([6]; POSTEMERGENCE, Rate 250 g/ha) was 50, the “Plant response rating, Sourgrass” value ([6]; PREEMERGENCE, Rate 32 g/ha) was 95 and the “Plant response rating, Sourgrass” value ([6]; PREEMERGENCE, Rate 64 g/ha) was 100. For the same compound, the “Plant response rating, Sourgrass” value ([6]; PREEMERGENCE, Rate 125 g/ha) was 100, the “Plant response rating, Com. ragweed” value ([7]; Rate 125 g/ha) was 100 and the “Plant response rating, Bermudagrass” value ([8]; Rate 125 g/ha) was 100. For the same compound, the “Plant response rating, Large crabgrass” value ([9]; Rate 64 g/ha) was 100, the “Plant response rating, Large crabgrass” value ([9]; Rate 125 g/ha) was 100 and the “Plant response rating, Com. groundsel” value ([10]; POSTEMERGENCE, Rate 125 g/ha) was 100. For the same compound, the “Plant response rating, Com. groundsel” value ([10]; POSTEMERGENCE, Rate 250 g/ha) was 100, the “Plant response rating, Com. groundsel” value ([10]; PREEMERGENCE, Rate 125 g/ha) was 100 and the “Plant response rating, Tall Mallow” value ([11]; Rate 32 g/ha) was 60. For the same compound, the “Plant response rating, Tall Mallow” value ([11]; Rate 64 g/ha) was 98, the “Plant response rating, Tall Mallow” value ([11]; Rate 125 g/ha) was 100 and the “Plant response rating, Com. purslane” value ([12]; POSTEMERGENCE, Rate 125 g/ha) was 50. The “Plant response rating, Com. purslane” value ([12]; POSTEMERGENCE, Rate 250 g/ha) was 75, the “Plant response rating, Com. purslane” value ([12]; PREEMERGENCE, Rate 32 g/ha) was 100 and the “Plant response rating, Com. purslane” value ([12]; PREEMERGENCE, Rate 64 g/ha) was 100. The “Plant response rating, Com. purslane” value ([12]; PREEMERGENCE, Rate 125 g/ha) was 100, the “Plant response rating, Dallisgrass” value ([13]; POSTEMERGENCE, Rate 125 g/ha) was 5 and the “Plant response rating, Dallisgrass” value ([13]; POSTEMERGENCE, Rate 250 g/ha) was 75. For the same compound, the “Plant response rating, Dallisgrass” value ([13]; PREEMERGENCE, Rate 32 g/ha) was 35, the “Plant response rating, Dallisgrass” value ([13]; PREEMERGENCE, Rate 64 g/ha) was 80 and the “Plant response rating, Dallisgrass” value ([13]; PREEMERGENCE, Rate 125 g/ha) was 90. The “Plant response rating, Downy brome” value ([14]; Rate 31 g/ha) was 30, the “Plant response rating, Downy brome” value ([14]; Rate 62 g/ha) was 40 and the “Plant response rating, Downy brome” value ([14]; Rate 125 g/ha) was 50. The “Plant response rating, Soybean” value (soybean (Glycine max); Rate 35 g/ha) was 0, the “Plant response rating, Soybean” value (soybean (Glycine max); Rate 70 g/ha) was 55 and the “Plant response rating, Soybean” value (soybean (Glycine max); Rate 140 g/ha) was 70. For the same compound, the “Plant response rating, Field bindweed” value ([15]; Rate 35 g/ha) was 100, the “Plant response rating, Field bindweed” value ([15]; Rate 70 g/ha) was 100 and the “Plant response rating, Field bindweed” value ([15]; Rate 140 g/ha) was 100. For the same compound, the “Plant response rating, H. beggarticks” value ([16]; Rate 35 g/ha) was 0, the “Plant response rating, H. beggarticks” value ([16]; Rate 70 g/ha) was 0 and the “Plant response rating, H. beggarticks” value ([16]; Rate 140 g/ha) was 30.
`Cc1cnc(-n2cnc(C(F)(F)F)n2)nc1C(=O)c1cccc(C(F)(F)F)c1` [Compound 67] was tested, and the “Plant response rating, Guineagrass” value ([4]; PREEMERGENCE, Rate 32 g/ha) was 80, the “Plant response rating, Guineagrass” value ([4]; PREEMERGENCE, Rate 64 g/ha) was 100 and the “Plant response rating, Guineagrass” value ([4]; PREEMERGENCE, Rate 125 g/ha) was 100. For the same compound, the “Plant response rating, Guineagrass” value ([4]; PREEMERGENCE, Rate 250 g/ha) was 100, the “Plant response rating, Goosegrass” value ([5]; PREEMERGENCE, Rate 32 g/ha) was 80 and the “Plant response rating, Goosegrass” value ([5]; PREEMERGENCE, Rate 64 g/ha) was 90. The “Plant response rating, Goosegrass” value ([5]; PREEMERGENCE, Rate 125 g/ha) was 100, the “Plant response rating, Goosegrass” value ([5]; PREEMERGENCE, Rate 250 g/ha) was 100 and the “Plant response rating, Sourgrass” value ([6]; PREEMERGENCE, Rate 32 g/ha) was 98. The “Plant response rating, Sourgrass” value ([6]; PREEMERGENCE, Rate 64 g/ha) was 100, the “Plant response rating, Sourgrass” value ([6]; PREEMERGENCE, Rate 125 g/ha) was 100 and the “Plant response rating, Sourgrass” value ([6]; PREEMERGENCE, Rate 250 g/ha) was 100. For the same compound, the “Plant response rating, Com. ragweed” value ([7]; Rate 125 g/ha) was 100, the “Plant response rating, Com. ragweed” value ([7]; Rate 250 g/ha) was 100 and the “Plant response rating, Bermudagrass” value ([8]; Rate 250 g/ha) was 100. For the same compound, the “Plant response rating, Large crabgrass” value ([9]; Rate 250 g/ha) was 100, the “Plant response rating, Com. groundsel” value ([10]; PREEMERGENCE, Rate 250 g/ha) was 100 and the “Plant response rating, Tall Mallow” value ([11]; Rate 32 g/ha) was 80. The “Plant response rating, Tall Mallow” value ([11]; Rate 64 g/ha) was 90, the “Plant response rating, Tall Mallow” value ([11]; Rate 125 g/ha) was 90 and the “Plant response rating, Tall Mallow” value ([11]; Rate 250 g/ha) was 98. For the same compound, the “Plant response rating, Com. purslane” value ([12]; PREEMERGENCE, Rate 32 g/ha) was 80, the “Plant response rating, Com. purslane” value ([12]; PREEMERGENCE, Rate 64 g/ha) was 100 and the “Plant response rating, Com. purslane” value ([12]; PREEMERGENCE, Rate 125 g/ha) was 100. For the same compound, the “Plant response rating, Com. purslane” value ([12]; PREEMERGENCE, Rate 250 g/ha) was 100, the “Plant response rating, Dallisgrass” value ([13]; PREEMERGENCE, Rate 32 g/ha) was 40 and the “Plant response rating, Dallisgrass” value ([13]; PREEMERGENCE, Rate 64 g/ha) was 70. For the same compound, the “Plant response rating, Dallisgrass” value ([13]; PREEMERGENCE, Rate 125 g/ha) was 80, the “Plant response rating, Dallisgrass” value ([13]; PREEMERGENCE, Rate 250 g/ha) was 100 and the “Plant response rating, Surinam grass” value [17] was 100.
